The values that follow come from patent EP1857556A1, “Genetically engineered Pseudomonas fluorescens strains as biosensor for trehalose detection and quantification in a sample” (INSTITUT NATIONAL DE LA RECHERCHE AGRONOMIQUE (INRA), priority 2006, dated 2007).

Data set [1] deals with Pyt 6. In words: semi-quantitative high-throughput X-Gal colorimetric trehalose assay with Pyt 6. The format is cell-based, Pseudomonas fluorescens. The following applies: semi-quantitative method; for visible induction: Pyt 6, sugars (2 %), X-Gal, 18 hours at 27°C. The protocol: For instance, the Inventors have developed a semi-quantitative method of assaying trehalose in a sample. Said method comprises the steps consisting of: • a) contacting the sample with a suspension of Pyt 6, precultured to exponential growth, at OD 600 nm = about 0.1, with a ratio about 1:20 (preferably 10 µl of the sample, optionally diluted, are contacted with 190 µl of the Pyt 6 suspension atOD600nm=0.1); • b) adding about 2 µl X-Gal (20 mg/ml); • c) incubation the mixture during 16-20 hours, preferably18 hours, at 27°C (preferably with agitation at 150 rpm), • c) observing and/or measuring the blue coloration elicited by X-Gal processing; and • d) comparing the blue coloration observed in step c) with that elicited by a standard of trehalose contacted with a suspension of Pyt 6, precultured to exponential growth, at OD 600 nm = about 0.1, with a ratio 1:10 (preferably 10 µl of the standards are contacted with 190 µl of the Pyt 6 suspension at OD 600 nm = 0.1) and X-Gal (2 µl, 20 mg/ml); whereby if the blue coloration observed in step c) is above that of observed with the standard, then the concentration of trehalose in the sample is above trehalose concentration in the standard.
From the knowledge derived from the use of the qualitative and quantitative methods, the inventors have developed a semi-quantitative method that allows a high throughput pre-screening of the presence of trehalose in liquid samples. The invention helps also to the check quickly the quality of controls without trehalose before applying the quantitative method. The semi-quantitative method combines a direct colorimetric observation with the use of the chromogenic X-Gal and the conditions of Pyt 6 culture derived from the quantitative method. The detection limit is 0.5 mM trehalose in 10 µl of the tested liquid sample (biological or other extracts).
This method was carried out according to the following steps : • preculture of Pyt 6 to exponential growth in the BCAA medium at 27°C, • distribution of 190 µl of this Pyt 6 suspension at OD 600 nm = 0.1 in wells of a 96 well microtiter plate , • incorporation of 2 µl X-Gal (20 mg/ml) in each well, • incorporation of 10 µl of a standard range of trehalose (0.1 mM to 2 mM trehalose) or 10 µl of tested samples or 10 µl of pure water or culture medium for the blank control, • incubation during 18 hours at 150 rpm at 27°C, • comparative observation of the intensity of the blue color in wells, • the lower detection limit is 0.5 mM trehalose in the tested sample.

Data set [2] deals with Pyt 6. Put plainly: visual assessment of β-galactosidase activity (blue color intensity) on X-gal buffered CAA medium, mutant Pyt 6. On β-galactosidase activities: key: -: no induction; (+): faintish induction; +: weak induction; ++: highly induction; +++: extremely strong induction. The class given is cell-based, P. fluorescens ATCC 17400. An excerpt: (§1) So, Pyt 6 was chosen as a good candidate to develop the biosensor test in the further study.
(§2) Table 1. Influence of added sugars in buffered (pH 7) CAA medium for the β-galactosidase activities of P. fluorescens ATCC 17400 derived mutants on visual assessment of blue color intensity

The test system of data set [3] is Pyt 5. In words: visual assessment of β-galactosidase activity (blue color intensity) on X-gal buffered CAA medium, mutant Pyt 5. The class given is cell-based, P. fluorescens ATCC 17400. The arrangement: β-galactosidase activities: key: -: no induction; (+): faintish induction; +: weak induction; ++: highly induction; +++: extremely strong induction.
From the text: as §1, §2

Data set [4] can be described thus: effect of boiling on trehalose, read out with Pyt 6 luminescence (Figure 8). The class given is physicochemical. The following applies: boiling of the samples, 5 min at 100°C (Figure 8). Here is the method:
The extract derived from 1 g of Ggt mycelium cultured for 7 days were tested. For the positive control, 10 ng of purified β-gal and 1 mM trehalose solution with Pyt 6 were assessed. Results shown are mean values from 3 repeated counting. Error bars indicate standard deviations.
The fungal extraction was performed as follows. Mycelium are pre-cultured (Gaeumannomyces. graminis (Ggt): 5 days on PDA (Potato Dextrose 39 g/L, agar 20 g/L); Laccaria bicolor. (Lb) 10 days on P5 (0.25 g Di NH4 tartrate, 0.5 g KH2PO4, 0.25 g MgSO4 7 H2O, 2.5 g maltose D+, 10 g glucose D+, 0.5 ml thiamine-HCl (100 mg/L), 0.5 ml Kanieltra oligoelement solution (100 ml/L), 10 g agar, 480 ml H2O, adjusted pH to 5.5 with HCl or NaOH). Growing mycelium plugs are explanted to BCAA agar (as defined above) with cellophane membrane or the glass bead/membrane system with liquid BCAA. The cellophane membranes were previously boiled in ultra-pure water + EDTA (372 mg.l-1) during 15 minutes, washed abundantly with ultra-pure water and sterilised by autoclaving twice. […]
Boiling of the fungal extracts is expected to denature endogenous β-gal and therefore avoid interference with trehalose measurement. […] Additionally, it was observed that when Ggt mycelium extract (diluted to 1/10) was boiled, no endogenous β-galactosidase activity was ever detected (Figure 8).

As to `OCC(O)CO` [glycerol], the visible induction result in data set [1] is “no visible induction”.
In the case of `O=C[C@@H](O)[C@H](O)[C@H](O)CO` [arabinose], the visible induction result in data set [1] is recorded as “no visible induction”.
`O=C[C@H](O)[C@@H](O)[C@@H](O)[C@H](O)CO` [galactose]: in data set [1], the visible induction entry was “no visible induction”.
In the case of `OC[C@H]1O[C@H](O[C@H]2[C@H](O)[C@@H](O)C(O)O[C@@H]2CO)[C@H](O)[C@@H](O)[C@@H]1O` (mixture of isomers) [maltose], the β-galactosidase activities result in data set [2] (Pyt 6, 0.2 % maltose added to buffered (pH 7) CAA medium) is “-”; in data set [2] (Pyt 6, 0.5% maltose added to buffered (pH 7) CAA medium), “-”; in data set [3] (Pyt 5, 0.2 % maltose added to buffered (pH 7) CAA medium) it was “++”; in data set [3] (Pyt 5, 0.5% maltose added to buffered (pH 7) CAA medium), “++”. Further, the treA expression result in data set [2] (strain as received under the label Pyt 6 (storage tubes inverted)) is “triggered”. Also, the visible induction entry in data set [1] is given as “no visible induction”. The treA induction entry in data set [3] (Pyt 5, visual assessment on X-gal medium) was “weak induction”.
In the case of `O=C(CO)[C@@H](O)[C@H](O)[C@H](O)CO` [fructose], in data set [1], the visible induction entry is reported as “no visible induction”.
Consider `OC[C@H]1O[C@H](O[C@H]2O[C@H](CO)[C@@H](O)[C@H](O)[C@H]2O)[C@H](O)[C@@H](O)[C@@H]1O` [trehalose, Trehalose], for which the β-galactosidase activities result in data set [2] (Pyt 6, 10 mM trehalose added to buffered (pH 7) CAA medium) is listed as “+++”; in data set [2] (Pyt 6, 10mM trehalose together with 0.2 % glucose) it was “+++”; in data set [2] (Pyt 6, 10 mM trehalose together with 0.2 % maltose) it was “+++”; in data set [2] (Pyt 6, 10 mM trehalose together with 0.5% maltose) it was “+++”; in data set [2] (Pyt 6, 10 mM trehalose together with 2 % glucose), “+++”; in data set [3] (Pyt 5, 10 mM trehalose added to buffered (pH 7) CAA medium), “+++”. The β-galactosidase activities result in data set [3] (Pyt 5, 10mM trehalose together with 0.2 % glucose) is on record as “+++”; in data set [3] (Pyt 5, 10 mM trehalose together with 0.2 % maltose), “+++”; in data set [3] (Pyt 5, 10 mM trehalose together with 0.5% maltose), “+++”; in data set [3] (Pyt 5, 10 mM trehalose together with 2 % glucose) it was “+++”. The treA induction entry in data set [2] (Pyt 6, trehalose 10^-3 M, visual assessment on X-gal medium) was “treA induction”. Besides, the stability to boiling result in data set [4] is “not affected”. In data set [1] (trehalose in 10 µl of the tested liquid sample), this compound displayed a detection limit of 0.5 mM. In data set [3] (strain as received under the label Pyt 5 (storage tubes inverted)), the treA expression entry is “specifically induced”.
